# Laboratory results published in patent publication US10093660B2, “Sulfoximine substituted quinazolines for pharmaceutical compositions” (EVOTEC INTERNATIONAL GMBH, priority 2013, dated 2018).
# Columns and labels:
# [1] = target: MNK2a (Homo sapiens (Human), UniProt Q9HBH9); assay: MNK2a in vitro kinase assay (Assay 2), ADP-Glo; type: biochemical; settings: assay 2; read-out: MNK2 IC50
# Excerpt: B. MNK2a In Vitro Kinase Assay (Assay 2)
# [2] = target: MNK1a (Homo sapiens (Human), UniProt Q9BUB5); assay: MNK1 in vitro kinase assay (Assay 3), Z'-LYTE; type: biochemical; settings: for inhibition at 1 µM: compound concentration of 1 μM, read-out: MNK1 % INH
# Chain of MNK1a (Q9BUB5 other isoform, or with tags, fused parts or gaps): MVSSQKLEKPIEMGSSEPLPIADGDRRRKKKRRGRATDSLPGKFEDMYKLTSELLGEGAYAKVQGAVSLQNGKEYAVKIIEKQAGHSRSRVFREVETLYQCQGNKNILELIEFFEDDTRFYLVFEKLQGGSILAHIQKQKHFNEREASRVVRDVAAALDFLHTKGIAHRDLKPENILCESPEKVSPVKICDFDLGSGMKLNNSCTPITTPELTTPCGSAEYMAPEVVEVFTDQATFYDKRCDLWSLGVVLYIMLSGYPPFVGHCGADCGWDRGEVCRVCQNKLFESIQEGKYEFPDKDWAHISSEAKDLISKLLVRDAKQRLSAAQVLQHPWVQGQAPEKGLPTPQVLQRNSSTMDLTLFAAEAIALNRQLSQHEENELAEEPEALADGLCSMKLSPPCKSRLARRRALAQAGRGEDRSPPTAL
# Excerpt: C. MNK1 In Vitro Kinase Assay (Assay 3)
# MNK1 Data can be obtained from the MNK1 Z′-LYTE® assay. The MNK1 Z′-LYTE® screening protocol and assay conditions are also described on www.invitrogen.com.
# The assay is described as follows:
# The Z′-LYTE® biochemical assay employs a fluorescence-based, coupled-enzyme format and is based on the differential sensitivity of phosphorylated and non-phosphorylated peptides to proteolytic cleavage. The peptide substrate is labeled with two fluorophores—one at each end—that make up a FRET pair.
# In the primary reaction, the kinase transfers the gamma-phosphate of ATP to a single tyrosine, serine or threonine residue in a synthetic FRET-peptide. In the secondary reaction, a site-specific protease recognizes and cleaves non-phosphorylated FRET-peptides. Phosphorylation of FRET-peptides suppresses cleavage by the Development Reagent. Cleavage disrupts FRET between the donor (i.e., coumarin) and acceptor (i.e., fluorescein) fluorophores on the FRET-peptide, whereas uncleaved, phosphorylated FRET-peptides maintain FRET. A ratiometric method, which calculates the ratio (the Emission Ratio) of donor emission to acceptor emission after excitation of the donor fluorophore at 400 nm, is used to quantitate reaction progress, as shown in the equation below.
# The 2×MKNK1 (MNK1) mixture is prepared in 50 mM HEPES pH 7.5, 0.01% BRIJ-35, 10 mM MgCl2, 4 mM MnCl2, 1 mM EGTA, 2 mM DTT.
# The Test Compounds are screened in 1% DMSO (final) in the well.
# All Peptide/Kinase Mixtures are diluted to a 2× working concentration in the MNK1 Kinase Buffer.
# All ATP Solutions are diluted to a 4× working concentration in Kinase Buffer (50 mM HEPES pH 7.5, 0.01% BRIJ-35, 10 mM MgCl2, 1 mM EGTA).
# Development Reagent Solution:
# The Development Reagent is diluted in Development Buffer
# 1. 2.5 μL—4× Test Compound
# 2. 5 μL—2× Peptide/Kinase Mixture
# 5. 60-minute Kinase Reaction incubation at room temperature
# 6. 5 μL—Development Reagent Solution
# 8. 60-minute Development Reaction incubation at room temperature
# 9. Read on fluorescence plate reader and analyze the data
# Control C0%=Average Coumarin emission signal of the 0% Phos. Control F100%=Average Fluorescein emission signal of the 100% Phos. Control F0%=Average Fluorescein emission signal of the 0% Phos. Control Graphing Software
# SelectScreen® Kinase Profiling Service uses XLfit from IDBS. […] The activity of MNK proteins can be assayed also by other in vitro kinase assay formats. […] In general, MNK kinase assays can be performed such that a MNK substrate such as a protein or a peptide, which may or may not include modifications as further described below, or others are phosphorylated by MNK proteins having enzymatic activity in vitro. The activity of a candidate agent can then be determined via its ability to decrease the enzymatic activity of the MNK protein. The kinase activity may be detected by change of the chemical, physical or immunological properties of the substrate due to phosphorylation.
# Chain of MNK2a (Q9HBH9 whole entry): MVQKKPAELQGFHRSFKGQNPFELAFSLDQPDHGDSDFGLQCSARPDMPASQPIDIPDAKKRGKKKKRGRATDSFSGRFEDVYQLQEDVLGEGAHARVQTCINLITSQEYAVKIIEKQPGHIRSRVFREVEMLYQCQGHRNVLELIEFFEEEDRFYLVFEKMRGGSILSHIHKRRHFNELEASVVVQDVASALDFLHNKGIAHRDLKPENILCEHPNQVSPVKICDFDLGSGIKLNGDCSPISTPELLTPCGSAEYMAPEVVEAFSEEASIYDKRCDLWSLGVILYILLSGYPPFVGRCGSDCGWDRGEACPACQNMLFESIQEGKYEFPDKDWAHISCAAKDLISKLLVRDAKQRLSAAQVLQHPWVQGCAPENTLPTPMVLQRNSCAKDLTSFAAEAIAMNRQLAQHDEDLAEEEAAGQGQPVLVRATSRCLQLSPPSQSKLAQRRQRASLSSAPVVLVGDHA
SMILES,IC50 [1] [nM],inhibition at 1 µM [2] [%],IC50 [2] [nM]
CO[C@H]1COC[C@@H]1Oc1ncccc1Nc1ncnc2cc(N=S3(=O)CCCC3)cc(C)c12 (racemic) [Example 2.39],7,86,–
CO[C@@H]1CNC[C@H]1Oc1cc(F)ccc1Nc1ncnc2cc(N=S(C)(C)=O)cc(C)c12 [Example 4.1],45,64,–
COc1cc(N=S(C)(=O)C(C)C)cc2ncnc(Nc3ccc(F)cc3O[C@H]3COC[C@H]3O)c12 (mixture of isomers) [Example 9.20],23,87,–
Cc1cc(N=S(C)(C)=O)cc2ncnc(Nc3cccnc3O[C@@H]3CN(S(C)(=O)=O)C[C@H]3O)c12 [Example 2.20],27,77,–
CO[C@@H]1CN(C(C)=O)C[C@H]1Oc1ncccc1Nc1ncnc2cc(N=S(C)(C)=O)cc(C)c12 [Example 6.3],584,9,–
COc1cc(N=S(C)(=O)C2CCOCC2)cc2ncnc(Nc3ccc(F)cc3O[C@H]3COC[C@H]3O)c12 (mixture of isomers) [Example 9.15],32,82,–
COc1cc(N=S(C)(=O)C(C)(C)C)cc2ncnc(Nc3ccc(F)cc3O[C@H]3COC[C@H]3O)c12 (mixture of isomers) [Example 9.19],42,–,329
CC(=O)N1C[C@@H](O)[C@H](Oc2ncccc2Nc2ncnc3cc(N=S4(=O)CCCC4)cc(C)c23)C1 [Example 2.23],23,75,–
COc1cc(N=S2(=O)CCCC2)cc2ncnc(Nc3ccc(F)cc3O[C@H]3COC[C@@H]3O)c12 [Example 9.29],3,94,–
CO[C@@H]1CCC(Oc2cc(F)ccc2Nc2ncnc3cc(N=S4(=O)CCC4)cc(C)c23)CO1 (mixture of isomers) [Example 2.56],2,95,–
CC(=O)O[C@H]1CN(C(C)=O)C[C@@H]1Oc1ncccc1Nc1ncnc2cc(N=S3(=O)CCCC3)cc(C)c12 [Example 6.10],378,38,–
CO[C@@H]1CN(C)C[C@H]1Oc1cc(F)ccc1Nc1ncnc2cc(N=S3(=O)CCCC3)cc(C)c12 [Example 11.2],31,75,–
Cc1cc(N=S2(=O)CCCC2)cc2ncnc(Nc3cccnc3O[C@@H]3CNC[C@H]3O)c12 [Example 3.1],29,93,–
Cc1cc(N=S(C)(=O)C(C)C)cc2ncnc(Nc3ccc(F)cc3O[C@@H]3COC[C@@H]3O)c12 (mixture of isomers) [Example 2.71],6,94,–
CC(=O)O[C@@H]1COC[C@@H]1Oc1cc(F)ccc1Nc1ncnc2cc(N=S(C)(C)=O)cc(C)c12 (racemic) [Example 6.9],7,90,–
"Cc1cc(N=S2(=O)CCCC2)cc2ncnc(Nc3ccc(F)cc3O[C@H]3COC[C@H]3O)c12 (single isomer, unassigned) [Example 14.6]",2,101,–
O=S1(=Nc2cc(Cl)c3c(Nc4ccc(F)cc4O[C@@H]4COC[C@H]4O)ncnc3c2)CCC1 [Example 1.22],1,92,–
Cc1cc(N=S2(=O)CCCC2)cc2ncnc(Nc3ccc(F)cc3O[C@H]3COC[C@H]3OCCF)c12 (racemic) [Example 10.1],1,–,55
O=S1(=Nc2cc(Cl)c3c(Nc4ccc(F)cc4O[C@H]4COC[C@@H]4O)ncnc3c2)CCC1 [Example 1.7],2,–,18
"Cc1cc(N=S2(=O)CCCC2)cc2ncnc(Nc3ccc(F)cc3O[C@@H]3COC[C@@H]3O)c12 (single isomer, unassigned) [Example 14.5]",3,99,–
CO[C@@H]1COC[C@@H]1Oc1cc(F)ccc1Nc1ncnc2cc(N=S(C)(C)=O)cc(Cl)c12 (racemic) [Example 1.4],2,97,–
O=S1(=Nc2cc(Cl)c3c(Nc4ccc(F)cc4O[C@H]4COC[C@@H]4O)ncnc3c2)CCCC1 [Example 1.9],2,98,28
